Assay results taken from PMC9471048, “The signaling and selectivity of α‐adrenoceptor agonists for the human α2A, α2B and α2C‐adrenoceptors and comparison with human α1 and β‐adrenoceptors” (Pharmacology Research & Perspectives, 2022).
Like-named read-outs stand apart in the source and are kept apart here.

Assays:
human α2A‐adrenoceptor [1] = target: T1, human α2A‐adrenoceptor (Homo sapiens, UniProt P08913)
T1 sequence (P08913 1-465): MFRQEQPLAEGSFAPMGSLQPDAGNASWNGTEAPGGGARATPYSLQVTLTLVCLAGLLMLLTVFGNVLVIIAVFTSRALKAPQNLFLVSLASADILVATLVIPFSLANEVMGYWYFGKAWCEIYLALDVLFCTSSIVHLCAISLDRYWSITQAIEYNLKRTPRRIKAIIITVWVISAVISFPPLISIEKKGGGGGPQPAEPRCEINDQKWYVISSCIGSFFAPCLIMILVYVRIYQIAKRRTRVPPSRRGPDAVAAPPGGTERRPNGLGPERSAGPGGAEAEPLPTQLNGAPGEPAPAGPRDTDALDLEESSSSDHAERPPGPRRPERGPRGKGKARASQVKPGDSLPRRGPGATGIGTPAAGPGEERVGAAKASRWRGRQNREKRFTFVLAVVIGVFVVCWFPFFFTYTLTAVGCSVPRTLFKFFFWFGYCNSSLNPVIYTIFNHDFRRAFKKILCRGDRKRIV

human α2C‐adrenoceptor [2] = target: T2, human α2C‐adrenoceptor (Homo sapiens, UniProt P18825); assay: ERK1/2‐phosphorylation in CHO‐α2C cells; format: cell-based; design: expressed in transfected cells; host or cells: CHO-K1 with CRE-SPAP reporter
T2 sequence (P18825 1-462): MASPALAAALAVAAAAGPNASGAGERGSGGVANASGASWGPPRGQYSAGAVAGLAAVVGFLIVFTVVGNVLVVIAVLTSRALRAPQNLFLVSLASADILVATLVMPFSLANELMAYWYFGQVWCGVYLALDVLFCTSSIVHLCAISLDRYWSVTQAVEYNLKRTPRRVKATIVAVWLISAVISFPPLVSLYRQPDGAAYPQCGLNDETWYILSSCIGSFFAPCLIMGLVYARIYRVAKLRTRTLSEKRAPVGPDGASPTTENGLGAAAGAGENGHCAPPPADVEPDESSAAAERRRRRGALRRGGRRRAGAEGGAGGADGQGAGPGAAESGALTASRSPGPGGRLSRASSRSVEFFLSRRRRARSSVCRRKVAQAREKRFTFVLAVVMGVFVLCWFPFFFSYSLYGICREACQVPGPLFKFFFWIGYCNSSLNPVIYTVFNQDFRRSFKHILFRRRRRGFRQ

human α2A‐adrenoceptor [3] = target: T1, human α2A‐adrenoceptor; assay: 3H‐rauwolscine whole cell binding in CHO‐α2A cells; design: expressed in transfected cells; host or cells: CHO-K1 with CRE-SPAP reporter
human α2C‐adrenoceptor [4] = target: T2, human α2C‐adrenoceptor; assay: 3H‐rauwolscine whole cell binding in CHO‐α2C cells; design: expressed in transfected cells; host or cells: CHO-K1 with CRE-SPAP reporter
human α2A‐adrenoceptor [5] = target: T1, human α2A‐adrenoceptor; assay: ERK1/2‐phosphorylation in CHO‐α2A cells; format: cell-based; design: expressed in transfected cells; host or cells: CHO-K1 with CRE-SPAP reporter
human α2C‐adrenoceptor [6] = target: T2, human α2C‐adrenoceptor
[7] = test system: parent CHO cells (no transfected receptor); design: method as in PMID 34355529; settings: non‐α‐mediated mechanism; cited from earlier work
[8] = CHO‐α2A (cell line 1), % inhibition from the 3 μM forskolin control, inhibition only
[9] = CHO‐α2A (cell line 1), absence of forskolin
[10] = CHO‐α2A, binding KD / Gi IC50 of CRE‐SPAP
[11] = Log IC50 (Gi), CRE‐SPAP (with forskolin), CHO‐α2A (cell line 1, 5830 fmol/mg protein), 3 μM forskolin
[12] = CHO‐α2C cells, maximum response compared to 10 μM PDBu, mean ± SEM
[13] = CHO‐α2C cells, given as negative log EC50, mean ± SEM, read-out: Log EC50, ERK1/2‐phosphorylation (converted)
[14] = 3H‐rauwolscine whole cell binding, living cells, negative log KD, mean ± SEM, read-out: Log KD, CHO‐α2A (converted)
[15] = CHO‐α2A, 3H‐rauwolscine whole cell binding, given as negative log KD, read-out: Log KD (binding) (converted)
[16] = fold, from KD values, 1 = no selectivity
[17] = 3H‐rauwolscine whole cell binding, living cells, negative log KD, mean ± SEM, read-out: Log KD, CHO‐α2C (converted)
[18] = CHO‐α2C cells, 3H‐rauwolscine whole cell binding, given as negative log KD, mean only (SEM in Table 4), read-out: Log KD (converted)
[19] = CHO‐α2A, maximum response compared to 10 μM PDBu
[20] = CHO‐α2A, read-out: Log EC50, ERK1/2‐phosphorylation (converted)
[21] = CHO‐α2C cells, % inhibition from the 3 μM forskolin control, mean ± SEM
[22] = CHO‐α2C cells, CRE‐SPAP production in the absence of forskolin
[23] = CHO‐α2C cells, log KD from 3H‐rauwolscine binding versus CRE‐SPAP log IC50
[24] = Log IC50 (Gi), CRE‐SPAP (with forskolin), CHO‐α2C cells, inhibition of 3 μM forskolin‐stimulated CRE‐SPAP production, given as negative log IC50, mean ± SEM

| SMILES | % inhibition, CRE‐SPAP (with forskolin) (human α2A‐adrenoceptor [1]; [8]) [%] | Log EC50 (Gs), CRE‐SPAP (without forskolin) (human α2A‐adrenoceptor [1]; [9]) | Log efficacy ratio (KD/IC50) (human α2A‐adrenoceptor [1]; [10]) | IC50 (human α2A‐adrenoceptor [1]; [11]) [nM] | % 10 μM PDBu, ERK1/2‐phosphorylation (human α2C‐adrenoceptor [2]; [12]) [%] | EC50 (human α2C‐adrenoceptor [2]; [13]) [nM] | Kd (human α2A‐adrenoceptor [3]; [14]) [nM] | Kd (human α2A‐adrenoceptor [3]; [15]) [nM] | Selectivity ratio α2A vs α2B (higher affinity for α2A) (human α2A‐adrenoceptor [3]; [16]) | Selectivity ratio α2A vs α2C (higher affinity for α2A) (human α2A‐adrenoceptor [3]; [16]) | Kd (human α2C‐adrenoceptor [4]; [17]) [nM] | Kd (human α2C‐adrenoceptor [4]; [18]) [nM] | Selectivity ratio α2B vs α2C (higher affinity for α2C) (human α2C‐adrenoceptor [4]; [16]) | IC50 (human α2A‐adrenoceptor [1]) [nM] | Log EC50 (Gs), CRE‐SPAP (without forskolin) (human α2A‐adrenoceptor [1]) | Kd (human α2A‐adrenoceptor [3]) [nM] | Kd (human α2C‐adrenoceptor [4]) [nM] | % inhibition, CRE‐SPAP (with forskolin) (human α2C‐adrenoceptor [6]) [%] | IC50 (human α2C‐adrenoceptor [6]) [nM] | Log EC50 (Gs), CRE‐SPAP (without forskolin) (human α2C‐adrenoceptor [6]) | further results |
| --- | --- | --- | --- | --- | --- | --- | --- | --- | --- | --- | --- | --- | --- | --- | --- | --- | --- | --- | --- | --- | --- |
| C1COC(NC(C2CC2)C2CC2)=N1 [Rilmenidine] | 94.2 ± 3.6 | No response | 0.96 | 170 | 125.2 ± 15.6 | 49 | 1550 | 1550 | 2.6 | 1.0 | 1550 | 1550 | 2.6 |  |  |  |  |  |  |  | % 10 μM PDBu, ERK1/2‐phosphorylation (human α2A‐adrenoceptor [5]; [19]): 144.0 ± 22.0%; EC50 (human α2A‐adrenoceptor [5]; [20]): 14.8 nM; % inhibition, CRE‐SPAP (with forskolin) (human α2C‐adrenoceptor [6]; [21]): 69.0 ± 7.9%; Log EC50 (Gs), CRE‐SPAP (without forskolin) (human α2C‐adrenoceptor [6]; [22]): No response; Log efficacy ratio (KD/IC50) (human α2C‐adrenoceptor [6]; [23]): 0.52; IC50 (human α2C‐adrenoceptor [6]; [24]): 468 nM |
| CNCC(O)c1ccc(O)cc1 (stereo not drawn) [Synephrine] |  |  |  |  |  |  |  |  |  |  |  |  |  | 9550 | No response | 89100 | 120000 | 88.1 ± 8.5 | 34700 | No response | % inhibition, CRE‐SPAP (with forskolin) (human α2A‐adrenoceptor [1]): 75.6 ± 5.6%; % 10 μM PDBu, ERK1/2‐phosphorylation (human α2C‐adrenoceptor [2]): 112.8 ± 10.7%; EC50 (human α2C‐adrenoceptor [2]): 3240 nM; % 10 μM PDBu, ERK1/2‐phosphorylation (human α2A‐adrenoceptor [5]): 114.5 ± 12.3%; EC50 (human α2A‐adrenoceptor [5]): 776 nM |
| c1ccc2c(c1)CCCC2C1=NCCN1 (stereo not drawn) [Tetrahydrozoline] | 69.3 ± 7.2 | No response | 1.18 | 21.4 | 139.6 ± 19.8 | 126 | 324 | 324 | 17.4 | 2.6 | 851 | 851 | 6.6 |  |  |  |  |  |  |  | % 10 μM PDBu, ERK1/2‐phosphorylation (human α2A‐adrenoceptor [5]; [19]): 123.0 ± 12.8%; EC50 (human α2A‐adrenoceptor [5]; [20]): 3.63 nM; % inhibition, CRE‐SPAP (with forskolin) (human α2C‐adrenoceptor [6]; [21]): 60.7 ± 3.2%; Log EC50 (Gs), CRE‐SPAP (without forskolin) (human α2C‐adrenoceptor [6]; [22]): No response; Log efficacy ratio (KD/IC50) (human α2C‐adrenoceptor [6]; [23]): 0.40; IC50 (human α2C‐adrenoceptor [6]; [24]): 339 nM |
| Cc1cccc(C)c1N=C1NCCCS1 [Xylazine] |  |  |  |  |  |  |  |  |  |  |  |  |  | 288 | No response | 11500 | 6030 | 81.8 ± 3.6 | 178 | No response | EC50 (human α2A‐adrenoceptor [1]): 8510 nM; Log efficacy ratio (KD/IC50) (human α2A‐adrenoceptor [1]): 1.60; % 10 μM PDBu, ERK1/2‐phosphorylation (human α2C‐adrenoceptor [2]): 168.2 ± 22.8%; EC50 (human α2C‐adrenoceptor [2]): 72.4 nM; Kd (human α2A‐adrenoceptor [3]; Log KD, CHO‐α2A): 11500 nM; Selectivity ratio α2A vs α2C (higher affinity for α2C) (human α2C‐adrenoceptor [4]): 1.9; Selectivity ratio α2B vs α2C (higher affinity for α2C) (human α2C‐adrenoceptor [4]): 1.0; Kd (human α2C‐adrenoceptor [4]; Log KD, CHO‐α2C): 6030 nM; % 10 μM PDBu, ERK1/2‐phosphorylation (human α2A‐adrenoceptor [5]): 128.3 ± 15.7%; EC50 (human α2A‐adrenoceptor [5]): 30.2 nM; Log efficacy ratio (KD/IC50) (human α2C‐adrenoceptor [6]): 1.53 |
| Cc1cc(C(C)(C)C)cc(C)c1CC1=NCCN1 [Xylometazoline] |  |  |  |  |  |  |  |  |  |  |  |  |  | 7.41 | No response | 24 | 107 | 57.2 ± 3.9 | 63.1 | No response | % inhibition, CRE‐SPAP (with forskolin) (human α2A‐adrenoceptor [1]): 73.9 ± 4.6%; Log efficacy ratio (KD/IC50) (human α2A‐adrenoceptor [1]): 0.51; ERK1/2‐phosphorylation agonist response in parent cells [7]: stimulate ERK1/2‐phosphorylation agonist responses; Selectivity ratio α2A vs α2B (higher affinity for α2A) (human α2A‐adrenoceptor [3]): 151; Selectivity ratio α2A vs α2C (higher affinity for α2A) (human α2A‐adrenoceptor [3]): 4.5; Kd (human α2A‐adrenoceptor [3]; Log KD, CHO‐α2A): 24 nM; Selectivity ratio α2B vs α2C (higher affinity for α2C) (human α2C‐adrenoceptor [4]): 33.9; Kd (human α2C‐adrenoceptor [4]; Log KD, CHO‐α2C): 107 nM; Log efficacy ratio (KD/IC50) (human α2C‐adrenoceptor [6]): 0.23 |
